The values that follow come from US12435315B2, “Generating dorsal foregut, and anterior domain, endoderm cells” (The Cleveland Clinic Foundation, priority 2019, dated 2025).

Holding throughout (format): cell-based, human
Assay [1] deals with pluripotent stem cells. Description: DoE/ISPA of biologically active retinoids for HNF1β induction (DFE induction). Particulars: retinoid DoE; 13-cis and all trans stated to contribute negatively. An excerpt: (§1) All DoE experimental designs were computer generated using D-optimal interaction designs in MODDE software (Sartorius Stedim Data Analytical Solutions, SSDAS). Perturbation matrixes were generated (96 independent experimental runs) on a Freedom Evol50 liquid handling robot (TECAN, CH). Each DoE differentiation experiment used a 3-day application of perturbation matrixes with daily media replacements. All cell culture, including manual preparatory expansion and seeding as well as any robotic manipulations were contained in a modular X-Vivo system (Biospherix, NY, USA) providing Process Analytical Technology (PAT) of the cell culture conditions (affording % N2, % O2, % CO2, and temperature control and monitoring at any point in the experimental process). End-point data collection was performed using an Open Array RT-QPCR method (QuantStudio, Life Technologies, 53 genes/sample/card). QuantStudio gene expression data were normalized within Expression Suite™ (Life Tech), standardized, and exported to MODDE. Mathematical modeling of the differentiation space was performed in MODDE using PLS maximizing the explained variance and subsequently gene-specific models were tuned by Q2 maximization. Fitted model optimized conditions for response maximization or minimization were extracted using the software predictive tools ‘optimizer’ and ‘dynamic profile’ analysis. Virtual experiments were performed in the known space covered by the experimental design, addressing pathway relative contributions to the desired parameters.
Samples were loaded onto a custom design Quant Studio Card using an OpenArray AccuFill System (Life Technologies 4471021) and ran on a QuantStudio 12k Flex Real-Time PCR System (Life Technologies 4471090). The QuantStudio Open Array analysis provided expression information of 53 chosen genes per open array configuration. […] Initial designs included genes responding to all major sub-lineage fates downstream of pluripotency, while the later design focused more on endodermal lineages with an emphasis on pancreatic fates. […]

Assay [2] deals with pluripotent cultures. As to the kind of experiment: DoE/ISPA modeling of endodermal gene induction from pluripotency (3-day perturbation matrix, OpenArray RT-QPCR). Particulars: ISPA prediction; for factor contribution (FC) for FOXA2 expression / factor contribution (FC) for HNF1β expression / factor contribution (FC) for MNX1 expression: pluripotent cultures. On the procedure: Pluripotent cultures were adapted to Essential 8 media (Gibco A15169-01) and grown on vitronectin (Gibco A14700) coated plates (Corning Inc. 3598). Differentiation experiments were seeded at 75,000 cells per cm^2 and maintained in E8 medium for 48 hours until cultures were approximately 90% confluent before initiating differentiation. All growth factors and small molecules were reconstituted according to supplier's recommendations and aliquots were stored at −80° C. for up to a year. Growth medium was changed daily and with the exception of the DE protocol the basal medium used in all differentiation experiments was CDM2 (Loh et al., 2014). The APS^Opt was composed of 250 nM LDN3189 (Sellekchem S2618), 50 ng/ml Activin A (Peprotech 120-14), 20 ng/ml bFGF (Gibco 13256029), 100 nM Sant1 (Sellekchem S7092). The HNF1β^Opt was supplemented with 250 nM LDN3189, 500 nM A8301 (Biogems 4463325), 12.6 ng/ml Wnt3a (R&D 5036WN/CF), 25 ng/ml bFGF, 250 nM PD0325 (Selleckchme S1036), 40 ng/ml SHH (Peprotech 100-45) and 2 uM retinoic acid (Sigma Aldrich R2625). DE was generated using conditions previously described (Rezania et al., 2014, D'Amour et al., 2005). The PDX1^Opt was composed of 500 nM A8301, 250 nM LDN3189, 100 nM Sant1, 250 nM PD0325, 2 uM retinoic acid and 1% B27 supplement (Gibco 12587) and with the exception of where it is stated differently in the text was used for 3 sequential days on differentiating cells. Endocrine push medium was supplemented with 100 nM gamma-secretase inhibitor XX (EMD Millipore 565789) and 500 nM A8301. Stomach organoids were generated using a modified protocol (McCracken et al., 2014). Briefly HNF1β^Opt cultures were incubated for three days with a stage 2 medium supplemented with 500 ng/ml Wnt3a, 500 ng/ml FGF4 (R&D 7460-F4), 250 nM LDN3189 and 2 uM retinoic acid (RA first day only). Cultures were passaged 1:6 with seeding occurring in a 1:4 Matrigel (Fisher Scientific 354230)/CDM2 mixture and incubated for 30 minutes at 37° C. before a three day application of stage 3 medium composed of 2 uM retinoic acid, 250 nM LDN3189 and 100 ng/ml EGF (R&D 236-EG). Cultures were then supplemented with a stage 4 medium supplemented with 100 ng/ml EGF for 23 days before organoids were recovered and fixed for sectioning.
as §1
RNA extractions for modeling analysis were performed using a MagMax-96 Total RNA Isolation Kit (Life Technologies AM1830) and performed according to manufacturer's protocol. […]

For assay [3], the system named is pluripotent stem cells. Description: Immunostaining and high content imaging of DFE markers (conversion efficiency). The conditions noted are these: immunostaining of DFE markers, compared with HNF1β^Opt / RA. On the procedure:
Histological characterization occurred by treating cell cultures with 4% paraformaldehyde (EMD 30525-89-4) solution at ambient temperature for 15 minutes. Samples were then blocked and permeabilized using 0.1M Tris/HCl (Promega H5123) pH 7.5 supplemented with 0.5% blocking reagent (Perkin Elmer FP1012) and 0.1% TrintonX-100 (Fisher Scientific BP151) for 1 hour. All antibody solutions were diluted in 0.1M Tris/HCl (Promega H5123) pH 7.5 and primary antibodies were incubated over-night while secondary antibodies were incubated for an hour. All incubations occurred at ambient temperature. Cultures were treated with a 1:2 dilution of Vectashield mounting medium (Vector Laboratories H-1200).
To further validate the induction conditions for DFE markers, immunostaining was performed, followed by high content imaging to assess conversion efficiency.

Assay [4] concerns DFE-derived endocrine cultures. Description: Glucose stimulated insulin release assay (GSIS), C-peptide ELISA. Particulars: 30 mM KCl, 30 minute incubation, versus 2 mM glucose basal. On the procedure: GSIS assays were performed by incubating cells in Krebs-Ringer buffer supplemented with 2 mM glucose for 30 minutes for determination of basal C-peptide levels. This was followed by changing reaction buffer to a Krebs Ringer buffer either supplemented with 20 mM glucose or 30 mM KCl for an additional 30 minute incubation. Buffer samples were collected and C-Peptide levels were quantified using ELISA (Mercodia 10-1141-01) according to manufacturer's protocol. Microfludic assays were performed as previously described (Adewola et al., 2010, Wang et al., 2012).
In general terms: An ELISA detects its analyte on a solid surface through an enzyme-linked reagent.

For another assay, the system named is DFE culture. Description: Sequential DoE/ISPA modelling on DFE culture, maximizing SOX2, OSR1 or PDX1 expression. The conditions noted are these: ISPA; for factor contribution (FC) for PDX1 (pancreatic) activation: PDX1^Opt.
Assay [5] has as its system pluripotent cultures. As to the kind of experiment: HD-DoE gastrulation modeling, normalized effector factor contributions for endodermal genes. Particulars: ISPA.
Excerpt: as §1, with “Virtual experiments were performed in the known space covered by the experimental design, addressing pathway relative contributions to the desired parameters.” left out
To better understand how the in vitro produced endodermal populations being studied are patterned we next performed a follow-up DoE-based gastrulation modeling experiment (FIG. 16A). ISPA optimizing for all the individual endoderm genes measured were then subjected to a cluster analysis using Seurat R package (FIG. 16B). […]
HD-DoE designs incorporating Activin A (AA), BMP4, NODAL, retinoic acid and respective inhibitors were used on pluripotent cultures and key endodermal genes were monitored (FIG. 16). Resulting data was imported into analysis software and computer models predicting optimal culture conditions for activating all genes monitored were clustered (FIG. 19B). […]

Excerpt for DFE culture: Since we observed that the DFE cultures were competent for both stomach and pancreas induction we next evaluated this bi-potential nature through a sequential DoE modelling experiment performed on the DFE culture.
Results from ISPA maximization of the expression of SOX2, OSR1 or PDX1 were compared (FIGS. 4A & B).
Pluripotent cultures were adapted to Essential 8 media (Gibco A15169-01) and grown on vitronectin (Gibco A14700) coated plates (Corning Inc. 3598). Differentiation experiments were seeded at 75,000 cells per cm^2 and maintained in E8 medium for 48 hours until cultures were approximately 90% confluent before initiating differentiation. All growth factors and small molecules were reconstituted according to supplier's recommendations and aliquots were stored at −80° C. for up to a year. Growth medium was changed daily and with the exception of the DE protocol the basal medium used in all differentiation experiments was CDM2 (Loh et al., 2014). The APS^Opt was composed of 250 nM LDN3189 (Sellekchem S2618), 50 ng/ml Activin A (Peprotech 120-14), 20 ng/ml bFGF (Gibco 13256029), 100 nM Sant1 (Sellekchem S7092). The HNF1β^Opt was supplemented with 250 nM LDN3189, 500 nM A8301 (Biogems 4463325), 12.6 ng/ml Wnt3a (R&D 5036WN/CF), 25 ng/ml bFGF, 250 nM PD0325 (Selleckchme S1036), 40 ng/ml SHH (Peprotech 100-45) and 2 uM retinoic acid (Sigma Aldrich R2625). […] The PDX1^Opt was composed of 500 nM A8301, 250 nM LDN3189, 100 nM Sant1, 250 nM PD0325, 2 uM retinoic acid and 1% B27 supplement (Gibco 12587) and with the exception of where it is stated differently in the text was used for 3 sequential days on differentiating cells.

With `CC1=C(/C=C/C(C)=C/C=C/C(C)=C/C(=O)O)C(C)(C)CCC1=O` [4-oxo-retinoic acid], in the assay with pluripotent stem cells [1], the “factor contribution (FC) to HNF1β induction” value worked out at 13.21.
Consider `CC1=C(/C=C/C(C)=C/C=C/C(C)=C\C(=O)O)C(C)(C)CCC1` [13-cis retinoic acid], for which the “factor contribution (FC) to HNF1β induction” value in the assay on pluripotent stem cells [1] amounted to 24.1609.
Regarding `Cc1cccc(-c2nn(C(=S)Nc3ccccc3)cc2-c2ccnc3ccccc23)n1` [Alk5i, A8301], in the assay with pluripotent cultures [2], the “factor contribution (FC) for FOXA2 expression” value is listed as 8.88, the “factor contribution (FC) for HNF1β expression” value is recorded as 7.59 and the “factor contribution (FC) for MNX1 expression” value was 18.98.
For `c1ccc2c(-c3cnn4cc(-c5ccc(N6CCNCC6)cc5)cnc34)ccnc2c1` [BMPi, LDN193189] the same measures were 25.3, 31.7 and 30.5.
For `CC1(C)CCC(C)(C)c2cc(C#Cc3ccc(C(=O)O)cc3)ccc21` [EC23], the “effectiveness of DFE induction by alternative retinoic acid pathway agonists” value in the assay on pluripotent stem cells [3] is reported as “operates equivalently to RA”.
Consider `[Cl-].[K+]` [KCl], for which the “increase in detectable C-peptide levels” value in assay [4] turned out to be 4 fold.
Consider `O=C(NOC[C@H](O)CO)c1ccc(F)c(F)c1Nc1ccc(I)cc1F` [PD0325901], for which, in the assay with DFE culture, the “factor contribution (FC) for PDX1 (pancreatic) activation” value was 29.62.
As to `CC1=C(/C=C/C(C)=C/C=C/C(C)=C/C(=O)O)C(C)(C)CCC1` [RA, retinoic acid], in the assay with pluripotent cultures [2], the “factor contribution (FC) for FOXA2 expression” value is 24.8, the “factor contribution (FC) for HNF1β expression” value is recorded as 30.1 and the “factor contribution (FC) for MNX1 expression” value is recorded as 22.7. For the same molecule, in the assay on DFE culture, the “factor contribution (FC) for OSR1 (gastric) activation” value stood at 30.68, the “factor contribution (FC) for SOX2 expression” value is given as −28.59 and the “factor contribution (FC) for PDX1 (pancreatic) activation” value came out at 31.38. For the same molecule, the “factor contribution (FC) to HNF1β induction” value in the assay with pluripotent stem cells [1] stood at 2.773.
In the case of SHH, the “factor contribution (FC) for SOX2 expression” value with DFE culture turned out to be 29.58.

B1: Activin A (protein, UniProt P08476 311-426, looked up)
Inhibin beta A chain: GLECDGKVNICCKKQFFVSFKDIGWNDWIIAPSGYHANYCEGECPSHIAGTSGSSLSFHSTVINHYRMRGHSPFANLKSCCVPTKLRPMSMLYYDDGQNIIKKDIQNMIVEECGCS
modifications: Inhibin beta A chain
notes: TGFβ pathway agonist used as a Nodal mimic
Turning to B1, in the assay with pluripotent cultures [2] (FOXA2, HNF1β, MNX1 etc.), the “contribution to activating retinoic acid/BMP inhibition-dependent endoderm genes” value was “no contribution”. Moreover, the “factor contribution (FC) to anterior primitive streak (APS) gene induction” value with pluripotent cultures [2] (maximal MESP1, EOMES, BRACHYURY/T, minimal EVX1) is recorded as 18.85. In addition, in the assay with pluripotent cultures [5], the “normalized factor contribution for OSR1 activation” value is −1.0, the “normalized factor contribution for PAX9 activation” value is −0.85 and the “normalized factor contribution for TBX1 activation” value is −0.59.

B2: FGF4 (protein, UniProt P08620 31-206, looked up)
Fibroblast growth factor 4: APTAPNGTLEAELERRWESLVALSLARLPVAAQPKEAAVQSGAGDYLLGIKRLRRLYCNVGIGFHLQALPDGRIGGAHADTRDSLLELSPVERGVVSIFGVASRFFVAMSSKGKLYGSPFFTDECTFKEILLPNNYNAYESYKYPGMFIALSKNGKTKKGNRVSPTMKVTHFLPRL
notes: FGF signaling growth factor (R&D 7460-F4)
For B2, the “factor contribution (FC) for OSR1 (gastric) activation” value in the assay with DFE culture stood at 13.45.
